Measured values as given in PubChem BioAssay (NCI).
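Compound exposure: 48 hours, 5 concentrations, 96-well plates. Here, GI50 denotes the concentration required for 50% inhibition of growth. The concentration for full growth arrest is given as TGI.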

What was measured:
P388 leukemia = assay: NCI tumour cell line growth inhibition, 48 h
SN12K1 renal = assay: NCI tumour cell line growth inhibition, 48 h

Compound	TGI (P388 leukemia)	TGI (SN12K1 renal)	GI50 (P388 leukemia)	GI50 (SN12K1 renal)
NC(=S)N/N=C/c1ccc(O)cn1	8.3 µM	> 1500 µM		
CCOC(=O)NC1=C(N2CC2)C(=O)C(NC(=O)OCC)=C(N2CC2)C1=O	14 µM	15.7 µM		
CC(C)[NH-].CC(C)[NH-].O.O.[Cl][Pt+2][Cl]	37.9 µM	150 µM	6.66 µM	31.1 µM
O=C(NCCCCCCNC(=O)n1cc(F)c(=O)[nH]c1=O)NCCCOCCOCCOCCOCCOCCOCCOCCOCCOCCOCCOCCOCCOCCOCCOCCOCCOCCOCCOCCOCCOCCCNC(=O)C(O)C(O)C(OC1OC(CO)C(O)C(O)C1O)C(O)CO (configuration not stated)	> 100 µM	> 100 µM		
OC(C1CO1)C(O)C1CO1 (configuration not stated)	150 µM	150 µM		
